Patent US20240132489A1, “AROMATIC HETEROCYCLIC COMPOUND, PHARMACEUTICAL COMPOSITION, AND USE THEREOF” (GT APEIRON THERAPEUTICS LIMITED, priority 2020, published 2024)
Where a name gives a salt, the structure may show the parent alone.

How the values were obtained:
[1] = test system: A2780 cells; assay: Cell bioactivity detection (CyQuant), A2780; assay type: cell-based, human; settings: ovarian carcinoma cells A2780, 72 hours
Protocol: (§1) Trypsinization was performed on A2780 and HCC70 cells. Cell suspensions were respectively transferred to 15 mL of centrifuge tubes and centrifuged at 800 rpm for 5 min. The supernatant was discarded. Resuspension in a fresh culture medium (RPMI 1640+10% FBS) was performed. After counting, the cells were inoculated at 2000/well in a 384-well plate (50 φL of 1640+10% FBS culture medium was added to the 2nd line and the 23rd line of the 384-well plate, and 50 μL of DPBS was added to surrounding wells). Incubation in an incubator (37° C., 5% CO2) was performed overnight.
(§2) The compound was added to the well plate the next day. The compound had the highest concentration of 10 μM and was diluted at the ratio of 1:4 to form 9 concentrations. The positive compound Paclitaxel had the highest concentration of 1 μM and was diluted at the ratio of 1:3 to form 9 concentrations. The DMSO content of each well was unified to 0.2%. A cell plate was centrifuged at 800 rpm for 30 seconds. Incubation for 72 hours in an incubator (37° C., 5% CO2) was performed. On the fourth day, a Cyquant reagent (3×) was prepared according to kit instructions. Each 384-well plate was prepared in the following proportions: DPBS: 11.568 mL, CyQuant® Direct nucleic acid stain: 72 μL, CyQuant® Direct background suppressor: 360 ILL. The plates were uniformly mixed and placed for standby application at room temperature. The cell plate was taken out and placed at room temperature to be balanced for 30 min. 25 μL of Cyquant reagent (3×) was dispensed to the cells in each well of the 384-well plates by using a Multi-drop dispenser. Incubation at 37° C. for 60 or more minutes was performed. The plates were read by Acumen (Acumen was configured to have a 488 nm excitation wavelength). IC50 results were analyzed by XLFIT5 of the IDBS company.

[2] = target: CDK7/cyclin H/MAT1 complex (Homo sapiens (Human), UniProt P50613); assay: In vitro enzymatic inhibitory activity test, CDK7; assay type: biochemical; settings: Caliper mobility shift, 180 min at 27° C.
Chain of CDK7/cyclin H/MAT1 complex (P50613 whole entry, species assumed): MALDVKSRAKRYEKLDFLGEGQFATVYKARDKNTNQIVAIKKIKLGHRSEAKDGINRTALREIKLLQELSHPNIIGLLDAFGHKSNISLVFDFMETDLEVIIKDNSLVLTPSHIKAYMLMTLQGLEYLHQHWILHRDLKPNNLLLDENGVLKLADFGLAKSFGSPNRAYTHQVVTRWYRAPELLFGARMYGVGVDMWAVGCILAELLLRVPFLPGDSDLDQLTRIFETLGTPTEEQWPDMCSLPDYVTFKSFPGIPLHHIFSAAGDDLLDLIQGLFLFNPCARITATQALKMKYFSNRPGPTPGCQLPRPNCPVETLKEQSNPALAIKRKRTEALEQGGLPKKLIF
Chain of CDK7/cyclin H/MAT1 complex (P51946 whole entry partner, species assumed): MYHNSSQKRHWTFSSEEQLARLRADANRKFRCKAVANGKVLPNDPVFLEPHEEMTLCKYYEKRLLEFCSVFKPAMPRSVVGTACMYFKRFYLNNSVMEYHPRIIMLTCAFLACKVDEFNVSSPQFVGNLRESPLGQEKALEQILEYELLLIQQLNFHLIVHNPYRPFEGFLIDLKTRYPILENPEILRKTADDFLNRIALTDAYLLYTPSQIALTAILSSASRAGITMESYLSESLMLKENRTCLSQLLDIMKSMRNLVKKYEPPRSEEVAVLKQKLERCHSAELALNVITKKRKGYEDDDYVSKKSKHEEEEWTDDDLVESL
Chain of CDK7/cyclin H/MAT1 complex (P51948 whole entry partner, species assumed): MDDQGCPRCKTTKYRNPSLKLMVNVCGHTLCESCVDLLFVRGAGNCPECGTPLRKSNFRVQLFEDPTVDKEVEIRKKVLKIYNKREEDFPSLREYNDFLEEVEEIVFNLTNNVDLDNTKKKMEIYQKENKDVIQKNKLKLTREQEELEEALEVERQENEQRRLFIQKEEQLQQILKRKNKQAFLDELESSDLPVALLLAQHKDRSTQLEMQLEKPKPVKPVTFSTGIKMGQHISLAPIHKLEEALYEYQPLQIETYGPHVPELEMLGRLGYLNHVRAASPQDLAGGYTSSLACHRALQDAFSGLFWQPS
Protocol: (§3) CDK7/CyclinH was diluted in a test buffer solution (20 mM MES PH6.75, 0.01% Tween20, 50 ug/mL BSA, 6 mM MgCl2) to obtain a corresponding enzyme solution with a 2.4× concentration. CDK2/CyclinE1 was diluted in a test buffer solution (20 mM MES PH6.75, 0.01% Tween20, 50 ug/mL BSA, 6 mM MgCl2) to obtain a corresponding enzyme solution with a 2.4× concentration. CDK9/CyclinT1 was diluted in a test buffer solution (20 mM MES PH6.75, 0.01% Tween20, 50 ug/mL BSA, 10 mM MgCl2) to obtain a corresponding enzyme solution with a 2.4× concentration. CDK12/CyclinK was diluted in a test buffer solution (80 mM MES PH6.5, 0.01% Tween20, 50 ug/mL BSA, 10 mM MgCl2) to obtain a corresponding enzyme solution with a 2.4× concentration. The compounds were dissolved in dimethyl sulfoxide (DMSO) at a concentration of 10 mM. […] 2 ul of a test compound solution was mixed with 5 ul of enzyme solution. After incubating for 10 min, 5 ul of the mixed solution of the polypeptide substrate and ATP was added. After incubating at 27° C. for 180 min, 4 uL of EDTA with a 120 mM concentration was added to each sample to stop the reaction. […] A CDK9/cyclin TI complex (8 nM) and a “5-FAM-CDK9tide” peptide substrate (2 μM, synthetic fluorophore labeled peptide having the following sequence: 5-FAM-GSRTPMY-NH2, where 5-FAM was as defined above, and NH2 represented C-terminal amide) were used for testing the CDK9 inhibition. […] A CDK2/cyclin E1 complex (0.5 nM) and the “5-FAM-CDK7tide” (2 μM) as defined above were used for testing the CDK2 inhibition.
(§4) Electrophoretic separation was performed on Caliper EZ Reader II by means of a fluorogenic substrate and a phosphorylated product to analyze the reaction mixture. Data were calculated by using GraphPad Prism version 6.0. IC50 values were adjusted by means of a nonlinear regression model using a dose-response curve.

[3] = target: CDK2/cyclin E1 complex (Homo sapiens (Human), UniProt P24941); assay: In vitro enzymatic inhibitory activity test, CDK2; assay type: biochemical; settings: Caliper mobility shift, 180 min at 27° C.
Protocol: CDK7/CyclinH was diluted in a test buffer solution (20 mM MES PH6.75, 0.01% Tween20, 50 ug/mL BSA, 6 mM MgCl2) to obtain a corresponding enzyme solution with a 2.4× concentration. CDK2/CyclinE1 was diluted in a test buffer solution (20 mM MES PH6.75, 0.01% Tween20, 50 ug/mL BSA, 6 mM MgCl2) to obtain a corresponding enzyme solution with a 2.4× concentration. CDK9/CyclinT1 was diluted in a test buffer solution (20 mM MES PH6.75, 0.01% Tween20, 50 ug/mL BSA, 10 mM MgCl2) to obtain a corresponding enzyme solution with a 2.4× concentration. CDK12/CyclinK was diluted in a test buffer solution (80 mM MES PH6.5, 0.01% Tween20, 50 ug/mL BSA, 10 mM MgCl2) to obtain a corresponding enzyme solution with a 2.4× concentration. […] 2 ul of a test compound solution was mixed with 5 ul of enzyme solution. After incubating for 10 min, 5 ul of the mixed solution of the polypeptide substrate and ATP was added. After incubating at 27° C. for 180 min, 4 uL of EDTA with a 120 mM concentration was added to each sample to stop the reaction. […] A CDK9/cyclin TI complex (8 nM) and a “5-FAM-CDK9tide” peptide substrate (2 μM, synthetic fluorophore labeled peptide having the following sequence: 5-FAM-GSRTPMY-NH2, where 5-FAM was as defined above, and NH2 represented C-terminal amide) were used for testing the CDK9 inhibition. […] A CDK2/cyclin E1 complex (0.5 nM) and the “5-FAM-CDK7tide” (2 μM) as defined above were used for testing the CDK2 inhibition.
as §4

[4] = test system: HCC70 cells; assay: Cell bioactivity detection (CyQuant), HCC70; assay type: cell-based; settings: human breast cancer cells HCC70, 72 hours
Protocol: as §1, §2

[5] = target: CDK9/CyclinT1 (Homo sapiens (Human), UniProt P50750); assay: In vitro enzymatic inhibitory activity test, CDK9; assay type: biochemical; settings: Caliper mobility shift, 180 min at 27° C.
Chain of CDK9/CyclinT1 (P50750 whole entry, species assumed): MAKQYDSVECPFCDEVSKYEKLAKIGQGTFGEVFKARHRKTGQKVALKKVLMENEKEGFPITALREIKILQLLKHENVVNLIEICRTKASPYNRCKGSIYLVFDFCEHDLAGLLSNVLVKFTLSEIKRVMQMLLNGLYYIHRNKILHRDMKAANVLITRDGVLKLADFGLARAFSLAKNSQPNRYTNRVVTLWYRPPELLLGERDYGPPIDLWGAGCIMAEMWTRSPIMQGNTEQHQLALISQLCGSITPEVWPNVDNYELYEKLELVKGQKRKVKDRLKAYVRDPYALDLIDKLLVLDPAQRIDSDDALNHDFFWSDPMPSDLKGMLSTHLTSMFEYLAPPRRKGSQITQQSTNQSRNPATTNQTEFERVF
Chain of CDK9/CyclinT1 (O60563 whole entry partner, species assumed): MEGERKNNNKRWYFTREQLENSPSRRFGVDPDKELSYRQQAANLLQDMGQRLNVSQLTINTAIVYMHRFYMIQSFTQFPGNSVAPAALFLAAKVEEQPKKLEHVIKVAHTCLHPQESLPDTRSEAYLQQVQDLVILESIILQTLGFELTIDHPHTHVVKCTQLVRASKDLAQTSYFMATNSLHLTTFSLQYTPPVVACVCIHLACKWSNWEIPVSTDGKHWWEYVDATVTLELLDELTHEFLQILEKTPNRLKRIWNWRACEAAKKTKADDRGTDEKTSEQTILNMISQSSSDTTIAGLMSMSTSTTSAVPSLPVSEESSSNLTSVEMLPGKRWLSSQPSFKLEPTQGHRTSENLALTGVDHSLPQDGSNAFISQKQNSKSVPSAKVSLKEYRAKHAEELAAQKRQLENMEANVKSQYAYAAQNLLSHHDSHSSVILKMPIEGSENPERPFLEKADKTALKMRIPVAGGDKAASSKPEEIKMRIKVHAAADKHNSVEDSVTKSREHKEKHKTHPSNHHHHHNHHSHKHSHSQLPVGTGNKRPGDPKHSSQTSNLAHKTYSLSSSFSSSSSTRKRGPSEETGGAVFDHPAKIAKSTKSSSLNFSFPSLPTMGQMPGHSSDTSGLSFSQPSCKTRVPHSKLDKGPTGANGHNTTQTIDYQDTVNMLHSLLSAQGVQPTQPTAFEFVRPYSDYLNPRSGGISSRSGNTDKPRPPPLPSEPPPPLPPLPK
Protocol: as §3, §4

[6] = target: CDK12(aa686-1082)/cyclin K complex (Homo sapiens (Human), UniProt Q9NYV4); assay: In vitro enzymatic inhibitory activity test, CDK12; assay type: biochemical; settings: Caliper mobility shift, 180 min at 27° C.
Chain of CDK12(aa686-1082)/cyclin K complex (Q9NYV4 686-1082, species assumed): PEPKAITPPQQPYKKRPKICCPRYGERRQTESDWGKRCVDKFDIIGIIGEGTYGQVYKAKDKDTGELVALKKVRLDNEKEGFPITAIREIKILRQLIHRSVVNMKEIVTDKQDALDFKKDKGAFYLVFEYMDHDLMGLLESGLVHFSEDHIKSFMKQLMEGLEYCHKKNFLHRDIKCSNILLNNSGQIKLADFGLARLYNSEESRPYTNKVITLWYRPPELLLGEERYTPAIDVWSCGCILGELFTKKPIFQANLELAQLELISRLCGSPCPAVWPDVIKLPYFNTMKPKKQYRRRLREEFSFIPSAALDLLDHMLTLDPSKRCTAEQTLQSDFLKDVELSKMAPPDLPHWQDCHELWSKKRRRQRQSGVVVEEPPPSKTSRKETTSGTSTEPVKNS
Chain of CDK12(aa686-1082)/cyclin K complex (O75909 whole entry partner, species assumed, the tested form may be a part): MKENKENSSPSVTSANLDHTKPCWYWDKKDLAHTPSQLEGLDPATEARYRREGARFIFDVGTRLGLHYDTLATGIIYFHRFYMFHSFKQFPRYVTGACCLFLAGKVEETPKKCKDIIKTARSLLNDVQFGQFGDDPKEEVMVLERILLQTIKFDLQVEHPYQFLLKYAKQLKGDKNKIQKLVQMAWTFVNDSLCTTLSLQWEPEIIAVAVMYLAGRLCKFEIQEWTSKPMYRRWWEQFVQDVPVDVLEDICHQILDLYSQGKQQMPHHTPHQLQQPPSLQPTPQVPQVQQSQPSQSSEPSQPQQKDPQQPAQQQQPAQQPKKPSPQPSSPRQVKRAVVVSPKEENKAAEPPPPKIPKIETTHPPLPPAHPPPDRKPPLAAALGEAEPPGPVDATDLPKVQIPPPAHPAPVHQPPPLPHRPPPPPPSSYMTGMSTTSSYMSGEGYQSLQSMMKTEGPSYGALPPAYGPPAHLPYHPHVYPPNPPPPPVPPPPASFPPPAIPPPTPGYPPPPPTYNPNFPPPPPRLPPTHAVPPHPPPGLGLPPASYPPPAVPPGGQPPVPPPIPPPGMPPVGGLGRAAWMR
Protocol: as §3, §4

| IC50 ([1]; Homo sapiens, A2780, 72 h) [nM] | IC50 [2] [nM] | IC50 [3] [nM] | IC50 [5] [nM] | IC50 [6] [nM] | IC50 [1] [nM] | Structure (SMILES) | IC50 ([4]; Homo sapiens, HCC70, 72 h) [nM] | IC50 [4] [nM] |
| --- | --- | --- | --- | --- | --- | --- | --- | --- |
| 6.27 | 6.4 | 1510 | 1440 | 567 | – | FC(F)(F)c1cnc(N[C@H]2CCCNC2)nc1-c1c[nH]c2nc(C3CCOC3)ccc12 (single isomer, unassigned) [Compound 107] | 6.77 | – |
| – | 4.36 | 947 | 1410 | 512 | 3.9 | FC(F)(F)c1cnc(N[C@H]2CCCNC2)nc1-c1c[nH]c2nc(C3CCOC3)ccc12 (single isomer, unassigned) [Compound 108] | – | 3.8 |
| 14 | 13.4 | 3020 | 1180 | 1460 | – | FC(F)(F)c1cnc(N[C@H]2CCCNC2)nc1-c1c[nH]c2nc(N3CCOCC3)ccc12 [Compound 1, (S)-4-(6-morpholinyl-1H-pyrrolo[2,3-b]pyridin-3-yl)-N-(piperidin-3-yl)-5-(trifluoromethyl)pyrimidine-2-amine] | 14 | – |
| 16 | 10.4 | 4380 | 1040 | 1840 | – | FC(F)(F)c1cnc(N[C@H]2CCCNC2)nc1-c1c[nH]c2nc(N3C[C@H]4C[C@@H]3CO4)ccc12 [Compound 2, 4-(6-((1R,4R)-2-oxa-5-azabicyclo[2.2.1]heptan-5-yl)-1H-pyrrolo[2,3-b]pyridin-3-yl)-N—((S)-piperidin-3-yl)-5-(trifluoromethyl)pyrimidine-2-amine] | 15 | – |
| 12 | 17.4 | 2680 | 722 | 679 | – | OC1CCN(c2ccc3c(-c4nc(N[C@H]5CCCNC5)ncc4C(F)(F)F)c[nH]c3n2)CC1 [Compound 3, (S)-1-(3-(2-(piperidin-3-ylamino)-5-(trifluoromethyl)pyrimidin-4-yl)-1H-pyrrolo[2,3-b]pyridin-6-yl)piperidin-4-ol] | 7.9 | – |
| 8 | 17.4 | 1480 | 682 | 733 | – | OCC1CCN(c2ccc3c(-c4nc(N[C@H]5CCCNC5)ncc4C(F)(F)F)c[nH]c3n2)CC1 [Compound 4] | 6.1 | – |
| 17 | 12.1 | 2250 | 907 | 1020 | – | FC(F)(F)c1cnc(N[C@H]2CCCNC2)nc1-c1c[nH]c2nc(N3CC4COCC4C3)ccc12 (stereo partly drawn) [Compound 5, N—((S)-piperidin-3-yl)-4-(6-(tetrahydro-1H-furan[3,4-c]pyrrol-5(3H)-yl)-1H-pyrrolo[2,3-b]pyridin-3-yl)-5-(trifluoromethyl)pyrimidine-2-amine] | 19 | – |
| 22 | 10.4 | 4380 | 1040 | 1840 | – | CC1(O)CCN(c2ccc3c(-c4nc(N[C@H]5CCCNC5)ncc4C(F)(F)F)c[nH]c3n2)C1 (stereo partly drawn) [Compound 6, 3-methyl-1-(3-(2-(((S)-piperidin-3-yl)amino)-5-(trifluoromethyl)pyrimidin-4-yl)-1H-pyrrolo[2,3-b]pyridin-6-yl)pyrrolidin-3-ol] | 6.7 | – |
| 21.9 | 24.3 | 4500 | 3250 | 2060 | – | FC(F)(F)c1cnc(N[C@H]2CCCNC2)nc1-c1c[nH]c2nc(N3CCCC4(CCOC4)C3)ccc12 (stereo partly drawn) [Compound 7, 4-(6-(2-oxa-7-azaspiro[4.5]decan-7-yl)-1H-pyrrolo[2,3-b]pyridin-3-yl)-N—((S)-piperidin-3-yl)-5-(trifluoromethyl)pyrimidine-2-amine] | 28 | – |
| 19.1 | 40.3 | 17500 | 15900 | 9320 | – | FC(F)(F)c1cnc(N[C@H]2CCCNC2)nc1-c1c[nH]c2nc(N3CCC4(COC4)C3)ccc12 [Compound 8, (S)-4-(6-(2-oxa-6-azaspiro[3.4]octan-6-yl)-1H-pyrrolo[2,3-b]pyridin-3-yl)-N-(piperidin-3-yl)-5-(trifluoromethyl)pyrimidine-2-amine] | 16 | – |
| 36.3 | 28.7 | 7290 | 4530 | 1270 | – | FC(F)(F)c1cnc(N[C@H]2CCCNC2)nc1-c1c[nH]c2nc(N3CCC4(CCOC4)CC3)ccc12 [Compound 9, (S)-4-(6-(2-oxa-8-azaspiro[4.5]decan-8-yl)-1H-pyrrolo[2,3-b]pyridin-3-yl)-N-(piperidin-3-yl)-5-(trifluoromethyl)pyrimidine-2-amine] | 44 | – |
| – | 82.9 | > 10000 | > 10000 | > 10000 | – | FC(F)(F)c1cnc(N[C@@H]2[C@@H]3CC[C@H]2NC3)nc1-c1c[nH]c2nc(N3CCOCC3)ccc12 [Compound 43, (1R,4R,7R)—N-(4-(6-morpholinyl-1H-pyrrol[2,3-b]pyridin-3-yl)-5-(trifluoromethyl)pyrimidin-2-yl)-2-azabicyclo[2.2.1]heptan-7-amine formate] | 6070 | – |
| – | 28.4 | 47100 | > 50000 | 49100 | – | C[C@H]1CC[C@H](Nc2ncc(C(F)(F)F)c(-c3c[nH]c4nc(N5CCOC[C@@H]5C)ccc34)n2)CN1 [Compound 69, 4-(6-((S)-3-methylmorpholine)-1H-pyrrol[2,3-b]pyridin-3-yl)-N-((3S,6S)-6-methylpiperidin-3-yl)-5-(trifluoromethyl)pyrimidine-2-amine] | – | 642 |
| – | 5.82 | – | – | – | – | FC(F)(F)c1cnc(N[C@@H]2CCCNC2)nc1-c1c[nH]c2nc(C3CCCCO3)ccc12 (stereo partly drawn) [Compound 112] | – | – |
| – | 4.76 | – | – | – | – | FC(F)(F)c1cnc(N[C@H]2CCCNC2)nc1-c1c[nH]c2nc(C3CCCCO3)ccc12 (stereo partly drawn) [Compound 113] | – | – |
